From US20250127709A1, “COSMETIC COMPOSITION CONTAINING IRIS GERMANICA ROOT-DERIVED EXOSOMES AS AN ACTIVE INGREDIENT” (PP PRODUITS PRESTIGES SA, priority 2021, published 2025)

Assays:
Format in all cases: cell-based, human
COL1A1 = assay: Wrinkle improvement efficacy: COL1A1 mRNA expression in HDFa; conditions: treated with 50 μM, positive control
Method: In order to confirm an anti-aging efficacy of the Iris germanica rhizome-derived exosomes, they were evaluated for their effect on COL1A1 expression by comparing them with the Iris germanica rhizome extracts for each solvent. After inoculating a human dermal fibroblast (HDFa), they were cultured in a culture medium of Fibroblast Basal Medium (Medium 106) containing 100 IU/mL of penicillin and 100 μg/mL of streptomycin under 5% CO2 at 37° C. for 24 hours. After culturing, the medium was discarded, and the Iris germanica rhizome-derived exosomes (stock concentration 9.90×10^9 particles/mL) and the Iris germanica rhizome extracts for each solvent (stock concentration 100 mg/mL) were treated at each concentration and cultured for 48 hours. After culturing, RNA was extracted from the cultured cells using a TransZol reagent, followed by performing RT-PCR (real-time genetic polymerase chain reaction) to measure an amount of mRNA change in collagen, which maintains a skin connective tissue. A product generated by the PCR was identified with a Gel Documentation system by performing electrophoresis on a 1% agarose gel. In this case, a negative control group was treated with PBS, and a positive control group was treated with 50 μM of retinyl palmitate. […]

MMP-1 = assay: Wrinkle improvement efficacy: MMP-1 mRNA expression in UVB-irradiated HDFa; conditions: UVB 20 mJ/cm^2, treated with 50 μM, positive control
Method: In order to confirm an anti-aging efficacy of the Iris germanica rhizome-derived exosomes, they were evaluated for their effect on MMP-1 expression by comparing them with the Iris germanica rhizome extracts for each solvent. After inoculating a human dermal fibroblast (HDFa), they were cultured in a culture medium of Fibroblast Basal Medium (Medium 106) containing 100 IU/mL of penicillin and 100 μg/mL of streptomycin under 5% CO2 at 37° C. for 24 hours. After the culture, the medium was discarded, and the Iris germanica rhizome-derived exosomes (stock concentration 9.90×10^9 particles/mL) and the Iris germanica rhizome extracts for each solvent (stock concentration 100 mg/mL) were treated at each concentration and cultured for 48 hours. In order to induce cell damage, the remaining cultured cell groups except for the non-UVB irradiation group were removed from the medium, and then the medium was irradiated with 20 mJ/cm^2 of UVB and replaced with a new medium, which was then cultured for 24 hours. After 24 hours, RNA was extracted from the cultured cells using a TransZol reagent, followed by performing RT-PCR (real-time genetic polymerase chain reaction) to measure an amount of mRNA change in MMP-1, which is related to skin aging and wrinkle formation. A product generated by the PCR was identified with a Gel Documentation system by performing electrophoresis on a 1% agarose gel. […]

AQP3 (Aquaporin 3) = assay: Moisturizing efficacy: AQP3 mRNA expression by RT-PCR in HEKa; conditions: treated with 0.01%, positive control
Method: In order to confirm a moisturizing efficacy of the Iris germanica rhizome-derived exosomes, they were evaluated for their effect on AQP3 expression by comparing them with the Iris germanica rhizome extracts for each solvent. After inoculating a human epidermal keratinocyte (HEKa), they were cultured in a culture medium of Dulbecco Modified Eagle Medium (DMEM) supplemented with 100 IU/mL of penicillin and 100 μg/mL of streptomycin under 5% CO2 at 37° C. for 24 hours. After the culture, the medium was discarded, and the iris germanica rhizome-derived exosomes (stock concentration 9.90×10^9 particles/mL) and the iris germanica rhizome extracts for each solvent (stock concentration 100 mg/mL) were treated at each concentration and cultured for 48 hours. Thereafter, RNA was extracted from the cultured cells using a TransZol reagent, followed by performing RT-PCR (real-time genetic polymerase chain reaction) to measure an amount of mRNA change in AQP3 (Aquaporin 3), which is a moisturizing factor involved in moisture movement in the cells and is a protein that plays an important role in skin moisturization. A product generated by the PCR was identified with a Gel Documentation system by performing electrophoresis on a 1% agarose gel. In this case, a negative control group was treated with PBS, and a positive control group was treated with 0.01% of a hyaluronic acid. […]

Compound | COL1A1 expression rate (COL1A1) [%] | MMP-1 expression rate (MMP-1) [%] | AQP3 expression rate (AQP3 (Aquaporin 3)) [%]
CCCCCCCCCCCCCCCC(=O)OC/C=C(C)/C=C/C=C(C)/C=C/C1=C(C)CCCC1(C)C [retinyl palmitate] | 173.93 | 72.81 | 
hyaluronic acid |  |  | 155.69
